Test results from patent US20260365647A1, “AKT1 MODULATORS” (Alterome Therapeutics, Inc., priority 2022, published 2026).

Target: T1, AKT1-E17K (Homo sapiens, UniProt P31749, E17K)
T1 construct: host or cells: HEK-293 (ATCC CRL-1573)
Test: NanoBRET Target Engagement (TE) Assay
Type: cell-based
Text: The NanoBRET™ Target Engagement (TE) Intracellular Kinase Assays are based on the NanoBRET™ System (Promega Corporation), an energy transfer technique designed to measure molecular proximity in living cells. The NanoBRET™ TE Assays measure the apparent affinity of test compounds by competitive displacement of the NanoBRET™ tracer compound, which is a cell permeable molecule engineered to be reversibly bound to a NanoLuc® luciferase-kinase fusion expressed in cells. For compound screening, when a test compound binds to the selected kinase, the BRET signal is attenuated. […] All cells were evaluated for viability prior to transfection and optimization of the transfection was done prior to experimentation. […] Following transfection, cells were washed and resuspended in Opti-MEM. NanoBRET assays were performed in white, 384-well plates (Corning) at a density of […]. All example compounds were prepared as concentrated stock solutions in DMSO (Sigma-Aldrich). Compounds are dissolved in DMSO to make 10 mM stock solution. […] A Labcyte ECHO 550 compound dispenser was used to facilitate compound transfer directly to cells. Cells were equilibrated for 2 hr with energy transfer probes and example compound prior to BRET measurements. […] For target engagement analysis, the energy transfer probes were added to the cells at concentrations optimized for the target in question (AKT E17K). Following compound incubation, NanoBRET NanoGlo Substrate (Promega Cat #N157D) and Extracellular Nanoluc Inhibitor (Promega Cat #N235C) was added according to the manufacturer's recommended protocol, and luminescence was measured on Envision Reader (Perkin Elmer) Multimode Luminometer equipped with 450 nmBPfilter (donor) and 600 nmLPfilter (acceptor), using 0.5 s integration time. Milli-BRET units (mBU) are calculated by multiplying the raw BRET values by 1000. Apparent tracer affinity values (EC50) were determined using the sigmoidal dose-response (variable slope). Competitive displacement data were then plotted and data were fit to determine the EC50 value for each example compound.

T1 sequence (P31749 whole entry E17K): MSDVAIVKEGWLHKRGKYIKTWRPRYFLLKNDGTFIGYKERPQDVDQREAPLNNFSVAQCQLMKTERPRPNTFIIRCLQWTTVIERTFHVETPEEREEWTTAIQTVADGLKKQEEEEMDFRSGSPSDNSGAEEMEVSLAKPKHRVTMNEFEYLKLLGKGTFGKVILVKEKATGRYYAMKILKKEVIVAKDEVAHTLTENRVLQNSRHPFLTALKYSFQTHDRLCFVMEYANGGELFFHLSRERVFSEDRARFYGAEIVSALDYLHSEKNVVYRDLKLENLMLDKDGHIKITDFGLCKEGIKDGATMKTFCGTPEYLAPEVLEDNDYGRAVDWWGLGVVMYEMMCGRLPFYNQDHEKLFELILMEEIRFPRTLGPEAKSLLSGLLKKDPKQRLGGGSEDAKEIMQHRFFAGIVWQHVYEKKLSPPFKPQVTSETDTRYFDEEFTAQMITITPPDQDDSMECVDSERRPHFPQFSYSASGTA

| Structure (SMILES) | IC50 [nM] |
| --- | --- |
| Nc1ncccc1-c1nc2ccc(-c3ccccc3Cl)nc2n1-c1ccc(CN2CCN(c3ccc(C=O)c(O)c3)CC2)cc1 [Example 145, 4-(4-(4-(2-(2-Aminopyridin-3-yl)-5-(2-chlorophenyl)-3H-imidazo[4,5-b]pyridin-3-yl)benzyl)piperazin-1-yl)-2-hydroxybenzaldehyde] | 60 to 600 |
| Nc1ncccc1-c1nc2ccc(-c3ccccc3)nc2n1-c1ccc(CN2CCC3(CCCN(C(=O)c4ccc(O)c(C=O)c4)C3)C2)cc1 (stereo not drawn) [Example 86, 5-(2-(4-(2-(2-Aminopyridin-3-yl)-5-phenyl-3H-imidazo[4,5-b]pyridin-3-yl)benzyl)-2,7-diazaspiro[4.5]decane-7-carbonyl)-2-hydroxybenzaldehyde] | 60 to 600 |
| Nc1ncccc1-c1nc2ccc(-c3ccccc3)nc2n1-c1ccc(CN2CCC3(CC2)CCN(C(=O)c2ccc(C=O)c(O)c2)C3)cc1 [Example 75, 4-(8-(4-(2-(2-Aminopyridin-3-yl)-5-phenyl-3H-imidazo[4,5-b]pyridin-3-yl)benzyl)-2,8-diazaspiro[4.5]decane-2-carbonyl)-2-hydroxybenzaldehyde] | 60 to 600 |
| Nc1ncccc1-c1nc2ccc(-c3ccccc3)nc2n1-c1ccc(CN2CC3(CCN(C(=O)c4ccc(O)c(C=O)c4)CC3)C2)cc1 [Example 95, 5-(2-(4-(2-(2-Aminopyridin-3-yl)-5-phenyl-3H-imidazo[4,5-b]pyridin-3-yl)benzyl)-2,7-diazaspiro[3.5]nonane-7-carbonyl)-2-hydroxybenzaldehyde] | 60 to 600 |
| Nc1ncccc1-c1nc2ccc(-c3ccccc3)nc2n1-c1ccc(CN2C[C@@H]3CN(c4ccc(O)c(C=O)c4)C[C@@H]3C2)cc1 [Example 134, 5-((3aR,6aS)-5-(4-(2-(2-Aminopyridin-3-yl)-5-phenyl-3H-imidazo[4,5-b]pyridin-3-yl)benzyl)hexahydropyrrolo[3,4-c]pyrrol-2(1H)-yl)-2-hydroxybenzaldehyde] | 60 to 600 |
| Nc1ncccc1-c1nc2ccc(C3=CCOCC3)nc2n1-c1ccc(CN2CCN(C(=O)c3ccc(C=O)c(O)c3)CC2)cc1 [Example 30, 4-(4-(4-(2-(2-Aminopyridin-3-yl)-5-(3,6-dihydro-2H-pyran-4-yl)-3H-imidazo[4,5-b]pyridin-3-yl)benzyl)piperazine-1-carbonyl)-2-hydroxybenzaldehyde] | 60 to 600 |
| Nc1ncccc1-c1nc2ccc(-c3ccccc3)nc2n1-c1ccc(CN2CCC3(CC2)CN(C(=O)c2ccc(O)c(C=O)c2)C3)cc1 [Example 67, 5-(7-(4-(2-(2-Aminopyridin-3-yl)-5-phenyl-3H-imidazo[4,5-b]pyridin-3-yl)benzyl)-2,7-diazaspiro[3.5]nonane-2-carbonyl)-2-hydroxybenzaldehyde] | 60 to 600 |
| Nc1ncccc1-c1nc2ccc(-c3ccccc3)nc2n1-c1ccc(CN2CCN(c3cc(O)c(C=O)c(F)c3)CC2)cc1 [Example 24, 4-(4-(4-(2-(2-Aminopyridin-3-yl)-5-phenyl-3H-imidazo[4,5-b]pyridin-3-yl)benzyl)piperazin-1-yl)-2-fluoro-6-hydroxybenzaldehyde] | 60 to 600 |
| Nc1ncccc1-c1nc2ccc(-c3ccccc3)nc2n1-c1ccc(CN2CC[C@@]3(CCN(c4ccc(C=O)c(O)c4)C3)C2)cc1 [Example 100, (R)-4-(7-(4-(2-(2-Aminopyridin-3-yl)-5-phenyl-3H-imidazo[4,5-b]pyridin-3-yl)benzyl)-2,7-diazaspiro[4.4]nonan-2-yl)-2-hydroxybenzaldehyde] | 60 to 600 |
| Nc1ncccc1-c1nc2ccc(-c3ccccc3)nc2n1-c1ccc(CN2CCC(Oc3cccc(O)c3C=O)CC2)cc1 [Example 128, 2-((1-(4-(2-(2-Aminopyridin-3-yl)-5-phenyl-3H-imidazo[4,5-b]pyridin-3-yl)benzyl)piperidin-4-yl)oxy)-6-hydroxybenzaldehyde] | 60 to 600 |
| C[C@H]1CN(Cc2ccc(-n3c(-c4cccnc4N)nc4ccc(-c5ccccc5)nc43)cc2)CCN1C(=O)c1ccc(O)c(C=O)c1 [Example 105, (S)-5-(4-(4-(2-(2-Aminopyridin-3-yl)-5-phenyl-3H-imidazo[4,5-b]pyridin-3-yl)benzyl)-2-methylpiperazine-1-carbonyl)-2-hydroxybenzaldehyde] | 60 to 600 |
| Nc1ncccc1-c1nc2ccc(-c3ccccc3)nc2n1-c1ccc(CN2CCC(NC(=O)c3cccc(C=O)c3O)CC2)cc1 [Example 49, N-(1-(4-(2-(2-aminopyridin-3-yl)-5-phenyl-3H-imidazo[4,5-b]pyridin-3-yl)benzyl)piperidin-4-yl)-3-formyl-2-hydroxybenzamide] | 15 to 60 |
| Nc1ncccc1-c1nc2ccc(N3CCOCC3)nc2n1-c1ccc(CN2CCC(NC(=O)c3ccc(C=O)c(O)c3)CC2)cc1 [Example 53, N-(1-(4-(2-(2-Aminopyridin-3-yl)-5-morpholino-3H-imidazo[4,5-b]pyridin-3-yl)benzyl)piperidin-4-yl)-4-formyl-3-hydroxybenzamide] | 60 to 600 |
| N#Cc1cccc(-c2ccc3nc(-c4cccnc4N)n(-c4ccc(CN5CCN(C(=O)c6ccc(O)c(C=O)c6)CC5)cc4)c3n2)c1 [Example 34, 3-(2-(2-Aminopyridin-3-yl)-3-(4-((4-(3-formyl-4-hydroxybenzoyl)piperazin-1-yl)methyl)phenyl)-3H-imidazo[4,5-b]pyridin-5-yl)benzonitrile] | 60 to 600 |
| Nc1ncccc1-c1nc2ccc(N3CCOCC3)nc2n1-c1ccc(CN2CCN(c3ccc(C=O)c(O)c3)CC2)cc1 [Example 31, 4-(4-(4-(2-(2-Aminopyridin-3-yl)-5-morpholino-3H-imidazo[4,5-b]pyridin-3-yl)benzyl)piperazin-1-yl)-2-hydroxybenzaldehyde] | 60 to 600 |
| Nc1ncccc1-c1nc2ccc(-c3ccccc3)nc2n1-c1ccc(CN2CC3CCC(C2)N3C(=O)c2ccc(O)c(C=O)c2)cc1 [Example 110, 5-(3-(4-(2-(2-Aminopyridin-3-yl)-5-phenyl-3H-imidazo[4,5-b]pyridin-3-yl)benzyl)-3,8-diazabicyclo[3.2.1]octane-8-carbonyl)-2-hydroxybenzaldehyde] | > 600 |
| Nc1ncccc1-c1nc2ccc(-c3ccccc3)nc2n1-c1ccc(CN2CCC3(CC2)CN(C(=O)c2ccc(C=O)c(O)c2)C3)cc1 [Example 71, 4-(7-(4-(2-(2-Aminopyridin-3-yl)-5-phenyl-3H-imidazo[4,5-b]pyridin-3-yl)benzyl)-2,7-diazaspiro[3.5]nonane-2-carbonyl)-2-hydroxybenzaldehyde] | > 600 |
| Nc1ncccc1-c1nc2ccc(-c3ccccc3)nc2n1-c1ccc(CN2CCN(c3ccc(C=O)c(O)c3)CC2)cc1 [Example 9, 4-(4-(4-(2-(2-Aminopyridin-3-yl)-5-phenyl-3H-imidazo[4,5-b]pyridin-3-yl)benzyl)piperazin-1-yl)-2-hydroxybenzaldehyde] | 15 to 60 |
| Nc1ncccc1-c1nc2ccc(-c3ccccc3)nc2n1-c1ccc(CN2CCN(C(=O)c3ccc(C=O)c(O)c3)CC2)cc1 [Example 6, 4-(4-(4-(2-(2-Aminopyridin-3-yl)-5-phenyl-3H-imidazo[4,5-b]pyridin-3-yl)benzyl)piperazine-1-carbonyl)-2-hydroxybenzaldehyde] | 60 to 600 |
| Nc1ncccc1-c1nc2ccc(-c3ccccc3)nc2n1-c1ccc(CN2CCN(c3cc(O)c(C=O)cc3Br)CC2)cc1 [Example 27, 4-(4-(4-(2-(2-Aminopyridin-3-yl)-5-phenyl-3H-imidazo[4,5-b]pyridin-3-yl)benzyl)piperazin-1-yl)-5-bromo-2-hydroxybenzaldehyde] | 60 to 600 |
| CN(Cc1ccc(-n2c(-c3cccnc3N)nc3ccc(-c4ccccc4)nc32)cc1)c1ccc(O)c(C=O)c1 [Example 18, 5-((4-(2-(2-Aminopyridin-3-yl)-5-phenyl-3H-imidazo[4,5-b]pyridin-3-yl)benzyl)(methyl)amino)-2-hydroxybenzaldehyde] | > 600 |
| Nc1ncccc1-c1nc2cccnc2n1-c1ccc(CNC(=O)c2ccc(C=O)c(O)c2)cc1 [Example 3, N-(4-(2-(2-Aminopyridin-3-yl)-3H-imidazo[4,5-b]pyridin-3-yl)benzyl)-4-formyl-3-hydroxybenzamide] | > 600 |
| Nc1ncccc1-c1nc2ccc(C3=CCCCC3)nc2n1-c1ccc(CN2CCN(C(=O)c3ccc(O)c(C=O)c3)CC2)cc1 [Example 150, 5-(4-(4-(2-(2-aminopyridin-3-yl)-5-(cyclohex-1-en-1-yl)-3H-imidazo[4,5-b]pyridin-3-yl)benzyl)piperazine-1-carbonyl)-2-hydroxybenzaldehyde] | 60 to 600 |
| Nc1ncccc1-c1nc2ccc(-c3ccccc3)nc2n1-c1ccc(CN2CCC3(CC2)CCN(C(=O)c2ccc(O)c(C=O)c2)CC3)cc1 [Example 77, 5-(9-(4-(2-(2-Aminopyridin-3-yl)-5-phenyl-3H-imidazo[4,5-b]pyridin-3-yl)benzyl)-3,9-diazaspiro[5.5]undecane-3-carbonyl)-2-hydroxybenzaldehyde] | 60 to 600 |
